Data set [1] relates to activated bone marrow macrophages. Briefly: Anti-inflammatory response, pro-inflammatory marker gene expression. It is filed as cell-based. The following applies: for IL-1B gene expression / IL-6 gene expression / Nos2 gene expression / TNF-α gene expression: 20 μM. From the text:
FIG. 5 Anti-inflammatory efficacy of Dicannabidiol (diCBD) adipate and AM1241 towards inflamed bone marrow macrophages.
AM1241 was used as comparison due to its commercial availability.

Another data set concerns F-11 (neuronal) cells. Briefly: Dose dependent cytotoxicity towards F-11 neuronal cells. Conditions: F11 cells, 24 hour incubation; for cytotoxicity: up to 20 μM. Type of data set: cell-based. As for the experimental part:
FIG. 4 Dose dependent cytotoxicity of Dicannabidiol (diCBD) adipate and AM1241 towards F-11 (neuronal) cells after 24 hour incubation.

The next data set concerns rat osteoarthritis model. Briefly: Rat osteoarthritis model (monoiodo acetate), mechanical allodynia. Type of data set: in vivo.
Data set [2] in a line: Degradation study: thermal and UV light. Type of data set: physicochemical. On the procedure: A degradation study was conducted in two parts: thermal degradation and UV light degradation. In the thermal degradation study, the Dicannabidiol adipate was heated to 175° C. in aerobic and anaerobic conditions and the changes were monitored by 1H NMR spectroscopy. In the UV light exposure study, a sample of Dicannabidiol adipate was kept under environmental conditions and UV light for several days and was constantly monitored by 1H NMR spectroscopy. From the results of the two experiments, it was concluded that the Dicannabidiol adipate is stable against the degradation caused from heat and UV exposure. […] This limits its misuse and abuse. Further, this indicates there will be no need to refrigerate the CBD-adipate dimer drug, and less issues, compared to CBD, with its shipping/handling.

A short description of data set [3]: Solubility study at different pHs. Type of data set: physicochemical. The following applies: 1 mg in 1 mL of water and ethanol, pH 1 to pH 12. On the procedure: A solubility study was conducted on the Dicannabidiol adipate at different pHs. Twelve vials were prepared by placing 1 mg of the dimer in 1 mL of water and ethanol of different pH, from pH 1 to pH 12. […] The hypothesis for the dimer being soluble in basic water is due to the bonding of the base with the phenolic oxygen of the dimer, thus producing the salt and easily solubilizing in water. […] Adipic acid is widely used in food and medicinal applications and is considered compatible and safe in the human body.

SMILES strings stand for the structures. Entries after “also recorded” stand apart in the source; their conditions may differ.

Experimental for rat osteoarthritis model: Briefly, baseline behavioral measurements were quantified prior to induction of osteoarthritis. Monoiodo acetate was used to induce osteoarthritis via intra-articular injection into the rear right knee joint followed 24 hours later by a single intra-articular injection of the designated treatment group (FIG. 9).

Take `CN1CCCCC1Cn1cc(C(=O)c2cc([N+](=O)[O-])ccc2I)c2ccccc21` (centres unmarked) [AM1241, reference compound]: in data set [1], the IL-1B gene expression result is listed as “significantly downregulate”, the IL-6 gene expression entry was “significantly downregulate”, the Nos2 gene expression result is recorded as “significantly downregulate” and the TNF-α gene expression result is “Neither of these drugs showed any significant effect”. Besides, in the data set on F-11 (neuronal) cells, the cytotoxicity entry is recorded as “significantly increased cytotoxicity”.

As for `CCCN1CCCC[C@H]1C(=O)Nc1c(C)cccc1C` [Ropivacaine], the “pain level after the anesthetic action, versus initial pain” value in the data set on rat osteoarthritis model (after drug is no longer active) is reported as “more pain”. The compound also had a pain free duration with rat osteoarthritis model (rat model of osteoarthritis) of 2 days.

With `C=C(C)[C@@H]1CCC(C)=C[C@H]1c1c(O)cc(CCCCC)cc1OC(=O)CCCCC(=O)Oc1cc(CCCCC)cc(O)c1[C@@H]1C=C(C)CC[C@H]1C(=C)C` [Dicannabidiol adipate], the “stability against degradation caused from UV exposure” value in data set [2] (environmental conditions and UV light for several days, monitored by 1H NMR) is reported as “stable”. Moreover, the “stability against degradation caused from heat” value in data set [2] (heated to 175° C., aerobic and anaerobic, monitored by 1H NMR) is “stable”. Moreover, in data set [2] (thermal), the “degradation into psychoactive molecules such as THC” value is “does not degrade”. In data set [1], the “anti-inflammatory effect in vitro” value was “potent anti-inflammatory effect”, the IL-1B gene expression result is “significantly downregulate; also recorded: significant reduction”, the IL-6 gene expression entry is on record as “significantly downregulate; also recorded: significant reduction” and the Nos2 gene expression result is listed as “significantly downregulate; also recorded: significant reduction”. Moreover, in data set [1], the TNF-α gene expression entry is recorded as “Neither of these drugs showed any significant effect”. Also, the “solubility in acidic conditions” value in data set [3] (acidic) is “not soluble”. For the same compound, the “solubility in basic pH” value in data set [3] (basic) is on record as “solubilizes”. The cell viability result in the data set on F-11 (neuronal) cells (20 μM) was “above 80%”. For the same compound, the cytotoxicity entry in the data set with F-11 (neuronal) cells was “minimal cytotoxicity; also recorded: no cytotoxicity; also recorded: minimal toxicity”. Also, the cytotoxicity entry with F-11 (neuronal) cells (listed as CBD-adipate dimer) is reported as “minimal dose dependent cell toxicity”.

The record behind these values is US20250325567A1, “COADMINISTRATION OF POLYC[…] AMINE/AMIDE A[…] ENHANCE EFFICACY AGAINST PAIN” (University of Connecticut, priority 2024, published 2025).
